ChEMBL document CHEMBL1201862, “PubChem BioAssay data set” (2004)
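Briefly, cells in 96-well plates were exposed to five compound concentrations for 48 h, and endpoints were estimated by linear interpolation. The concentration for 50% growth inhibition is given as GI50.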 Calls of active or inactive are those of the source. No stated cut-off is given here; in the data, active = GI50 up to about 1.1 µM and inactive = higher.

What was measured:
Assay in all cases: NCI anticancer screen, dose series, 48 h
M14 = test system: M14
K562 = test system: K562
LOX IMVI = test system: LOX IMVI
OVCAR-3 = test system: OVCAR-3
HCC 2998 = test system: HCC 2998
SNB-19 = test system: SNB-19
SK-MEL-2 = test system: SK-MEL-2
SK-MEL-28 = test system: SK-MEL-28
HT-29 = test system: HT-29
NCI-H226 = test system: NCI-H226
HCT-15 = test system: HCT-15
NCI-H460 = test system: NCI-H460
LXFL 529 = test system: LXFL 529
IGROV-1 = test system: IGROV-1
HCT-116 = test system: HCT-116
UACC-257 = test system: UACC-257
OVCAR-4 = test system: OVCAR-4
A549 = test system: A549
OVCAR-8 = test system: OVCAR-8

Row | Structure (SMILES) | GI50 (M14) | GI50 (K562) | GI50 (LOX IMVI) | GI50 (OVCAR-3) | GI50 (HCC 2998) | GI50 (SNB-19) | GI50 (SK-MEL-2) | GI50 (SK-MEL-28) | GI50 (HT-29) | GI50 (NCI-H226) | GI50 (HCT-15) [µM] | GI50 (NCI-H460) | GI50 (LXFL 529) | GI50 (IGROV-1) | GI50 (HCT-116) | GI50 (UACC-257) | GI50 (OVCAR-4) | GI50 (A549) | GI50 (OVCAR-8)
1 | COc1ccc2oc(-c3ccncc3)cc(=O)c2c1 | > 100 µM (inactive) | > 100 µM (inactive) | 57.5 µM (inactive) | > 100 µM (inactive) | > 100 µM (inactive) | > 100 µM (inactive) | > 100 µM (inactive) | > 100 µM (inactive) | > 100 µM (inactive) | > 100 µM (inactive) | > 100 | > 100 µM (inactive) | > 100 µM (inactive) | 82 µM (inactive) | > 100 µM (inactive) | > 100 µM (inactive) | > 100 µM (inactive) |  | 
2 | COC1(OC)C2(Cl)C(Cl)=C(Cl)C1(Cl)C1C=CC=CC12 (stereo unspecified) | 57.5 µM (inactive) | 51.6 µM (inactive) | 40.2 µM (inactive) | > 100 µM (inactive) | 65.2 µM (inactive) | > 100 µM (inactive) | 24.1 µM (inactive) | > 100 µM (inactive) | 47.8 µM (inactive) | > 100 µM (inactive) | 54.5 | > 100 µM (inactive) | > 100 µM (inactive) | > 100 µM (inactive) | 43.5 µM (inactive) | > 100 µM (inactive) | > 100 µM (inactive) | 69 µM (inactive) | > 100 µM (inactive)
3 | N#Cc1ccc(/C=C(/C(=O)c2ccccc2)c2ccccc2)cc1 | 13.3 µM (inactive) | 2.6 µM (inactive) | 2.75 µM (inactive) | 16.1 µM (inactive) | 16.9 µM (inactive) | 19.4 µM (inactive) | 15 µM (inactive) | 15.8 µM (inactive) | 8.18 µM (inactive) | 16.7 µM (inactive) | 12.2 | 16.5 µM (inactive) | 4.78 µM (inactive) | 23.7 µM (inactive) | 4.18 µM (inactive) | 12.4 µM (inactive) | 10.2 µM (inactive) | 16.9 µM (inactive) | 6.41 µM (inactive)
4 | CCNC(=O)CCN(C(=O)O)S(=O)(=O)c1ccc(NC(=O)c2ccccc2)cc1 | > 100 µM (inactive) | 86.3 µM (inactive) | 22.6 µM (inactive) | > 100 µM (inactive) | > 100 µM (inactive) | > 100 µM (inactive) | > 100 µM (inactive) | > 100 µM (inactive) | 50.8 µM (inactive) | > 100 µM (inactive) | > 100 | > 100 µM (inactive) | > 100 µM (inactive) | > 100 µM (inactive) | 35.6 µM (inactive) | > 100 µM (inactive) | > 100 µM (inactive) | > 100 µM (inactive) | > 100 µM (inactive)
5 | CC(=O)O[C@H]1CC[C@@]2(C)C(=CC[C@H]3C4=CC=C(C(C)=O)[C@@]4(C)CCC32)C1 (stereo partly specified) | 33.7 µM (inactive) |  | 15.5 µM (inactive) | 35.9 µM (inactive) | 48.4 µM (inactive) | 63.8 µM (inactive) |  | 31 µM (inactive) | 34.4 µM (inactive) | 15 µM (inactive) | 29.8 | 43.7 µM (inactive) | 30.5 µM (inactive) | 56.2 µM (inactive) | 15.6 µM (inactive) | 24 µM (inactive) | 40.6 µM (inactive) | 36.4 µM (inactive) | 21.8 µM (inactive)
6 | C/C=C/C(=O)Oc1cccc2cccnc12 | 3.79 µM (inactive) | 6.08 µM (inactive) | 9.2 µM (inactive) | 3.24 µM (inactive) | 20.6 µM (inactive) | 48.8 µM (inactive) |  | 14.5 µM (inactive) | 19.7 µM (inactive) | 25.1 µM (inactive) | 7 | 3.32 µM (inactive) | 4.21 µM (inactive) | 24.6 µM (inactive) | 3.76 µM (inactive) | 4.62 µM (inactive) | 4.39 µM (inactive) | 18.8 µM (inactive) | 4.61 µM (inactive)
7 | COc1cccc(NC(=O)CC(=O)N2N=C(N(CCC#N)c3ccccc3C)CC2c2ccccc2)c1 (stereo unspecified) | > 100 µM (inactive) | > 100 µM (inactive) |  | > 100 µM (inactive) | > 100 µM (inactive) | > 100 µM (inactive) | > 100 µM (inactive) | > 100 µM (inactive) | > 100 µM (inactive) | > 100 µM (inactive) | > 100 | > 100 µM (inactive) | > 100 µM (inactive) | > 100 µM (inactive) | > 100 µM (inactive) | > 100 µM (inactive) | > 100 µM (inactive) | > 100 µM (inactive) | > 100 µM (inactive)
8 | COc1ccc(OC(C)C(=O)O)c2c(=O)ccccc12 (stereo unspecified) | > 100 µM (inactive) | > 100 µM (inactive) | > 100 µM (inactive) | > 100 µM (inactive) | > 100 µM (inactive) | > 100 µM (inactive) | > 100 µM (inactive) | > 100 µM (inactive) | > 100 µM (inactive) | > 100 µM (inactive) | > 100 | > 100 µM (inactive) | > 100 µM (inactive) | > 100 µM (inactive) |  | > 100 µM (inactive) | > 100 µM (inactive) | > 100 µM (inactive) | > 100 µM (inactive)
9 | CC(=O)N(C)C=C1C(=O)N(C)C(=O)N(C)C1=O | > 100 µM (inactive) | > 100 µM (inactive) | > 100 µM (inactive) | > 100 µM (inactive) | > 100 µM (inactive) | > 100 µM (inactive) | > 100 µM (inactive) | > 100 µM (inactive) | > 100 µM (inactive) | > 100 µM (inactive) | > 100 | > 100 µM (inactive) | > 100 µM (inactive) |  | > 100 µM (inactive) | > 100 µM (inactive) | > 100 µM (inactive) | > 100 µM (inactive) | > 100 µM (inactive)
10 | O=C1c2ccccc2C(=O)c2c1ccc1c2N=C(c2ccc(Br)cc2)CC(c2cccc3ccccc23)N1 (stereo unspecified) | > 100 µM (inactive) | > 100 µM (inactive) | > 100 µM (inactive) | > 100 µM (inactive) | > 100 µM (inactive) | > 100 µM (inactive) | > 100 µM (inactive) | > 100 µM (inactive) | > 100 µM (inactive) | > 100 µM (inactive) | > 100 | > 100 µM (inactive) | > 100 µM (inactive) | > 100 µM (inactive) |  | > 100 µM (inactive) | > 100 µM (inactive) | > 100 µM (inactive) | > 100 µM (inactive)
11 | COc1cc(CC2c3cc(OC)c(OC)cc3CCN2C)c(Oc2cc3c(cc2OC)-c2c(OC)c(OC)c(OC)c4c2C(C3)N(C)CC4)cc1OC (stereo unspecified) | 2.4 µM (inactive) | 2.63 µM (inactive) | 6.73 µM (inactive) | 12.3 µM (inactive) | 5.32 µM (inactive) | 19.4 µM (inactive) | 14.6 µM (inactive) | 9.64 µM (inactive) | 8.77 µM (inactive) | 17.2 µM (inactive) | 10.1 | 15.6 µM (inactive) | 13.7 µM (inactive) | 14.3 µM (inactive) | 11.7 µM (inactive) | 6.31 µM (inactive) | 16 µM (inactive) | 15.9 µM (inactive) | 14.9 µM (inactive)
12 | NC(=O)CCCC(NCc1c2ccccc2nc2ccccc12)C(=O)O (stereo unspecified) | 42.4 µM (inactive) | 26.6 µM (inactive) | 30.4 µM (inactive) | 37.9 µM (inactive) | 50.9 µM (inactive) |  | 90.6 µM (inactive) | > 100 µM (inactive) | 36.2 µM (inactive) | > 100 µM (inactive) | 36.5 | 39.5 µM (inactive) | 39.9 µM (inactive) | 48.5 µM (inactive) | > 10 µM (inactive) | 85.1 µM (inactive) | 11.1 µM (inactive) | 56.1 µM (inactive) | 42.7 µM (inactive)
13 | NC(=O)c1ncn2c1NCC1OC2C(O)C1O (stereo unspecified) | > 100 µM (inactive) | > 100 µM (inactive) | > 100 µM (inactive) | > 100 µM (inactive) | > 100 µM (inactive) | > 100 µM (inactive) | > 100 µM (inactive) | > 100 µM (inactive) | > 100 µM (inactive) | > 100 µM (inactive) |  |  | > 100 µM (inactive) | > 100 µM (inactive) | > 100 µM (inactive) | > 100 µM (inactive) | > 100 µM (inactive) | > 100 µM (inactive) | > 100 µM (inactive)
14 | COC(=O)C1=C(O)c2cc(OC)c(OC)c(OC)c2[C@H](c2cc(OC)c(OC)c(OC)c2)C1C(=O)OC (stereo partly specified) | 26 µM (inactive) | 24.5 µM (inactive) | 41.1 µM (inactive) | 22.9 µM (inactive) | 27.6 µM (inactive) | 38.3 µM (inactive) |  | 21.8 µM (inactive) | 22.8 µM (inactive) | 49.3 µM (inactive) | 28.8 | 7.18 µM (inactive) | 31.1 µM (inactive) | 36.2 µM (inactive) | 37.6 µM (inactive) | 44.4 µM (inactive) | 32.6 µM (inactive) | 49.8 µM (inactive) | 36.4 µM (inactive)
15 | CC(C)CCCC(C)[C@H]1CCC2[C@@H]3CCC4Nc5nocc5C[C@]4(C)C3CC[C@@]21C (stereo partly specified) | 16.3 µM (inactive) | 15.8 µM (inactive) | 2.23 µM (inactive) | 5.61 µM (inactive) | 15.5 µM (inactive) | 21.2 µM (inactive) | 20.7 µM (inactive) |  | 18.5 µM (inactive) | 19.9 µM (inactive) | 14.6 | 20 µM (inactive) | 11.8 µM (inactive) | 25.6 µM (inactive) | 18.4 µM (inactive) | 19.7 µM (inactive) | 19.4 µM (inactive) | 21.2 µM (inactive) | 12.6 µM (inactive)
